From patent publication US8778975B2, “Helicobacter pylori eradicating agent having inhibitory activity on gastric acid secretion” (Link Geonomics, Inc., priority 2006, dated 2014)

Experiments:
gastric acid secretion = assay: Gastric acid secretion inhibiting action, pylorus ligation in rats; assay type: in vivo, SD rats; conditions: 30 mg/kg to the duodenum, 4 hours after pylorus ligation, average
Protocol: The gastric acid secretion inhibiting action of the compounds of the present invention was tested. A group of five animals of male SD rats (about 200 g) were used, and the medicaments were respectively dissolved in 0.5% CMC and were all administered to the duodenum respectively at 30 mg/kg. The rats were fasted overnight from the day before the administration of the test substance to the point of administration, and pylorus ligation was performed.

[1] = Stability test in acidic hydrochloric acid solution (pH 2), residual ratio by HPLC; assay type: physicochemical; conditions: for Residual ratio at pH 2: pH 2 HCl, 37° C.; for Stability in acid (residual ratio at pH = 2: %): Table 8 summary, time not stated
Protocol: A test for the stability of thioether compounds (hereinafter, referred to SH-form) and sulfoxide compounds (hereinafter, referred to SO-form) at pH 2.0 was carried out. (Method) Each of the specimens produced in Examples 1 to 3 and Reference Examples 6 to 8 (sulfinyl products of Examples 1 to 3) was maintained in a solution adjusted to pH 2 with 0.5 or 1.0 mmol/L HCl (37° C.) for a predetermined time period. Subsequently, the solution was adjusted to pH 8 with triethylamine, and then an HPLC analysis was performed to calculate the residual ratio.

Row | SMILES | Gastric acid secretion inhibiting action: Amount of gastric acid (gastric acid secretion) [%] | Gastric acid secretion inhibiting action: Amount of gastric acid secretion (gastric acid secretion) [%] | Gastric acid secretion inhibiting action: Total acidity (gastric acid secretion) [%] | Residual ratio at pH 2 ([1]; 0 min) [%] | Residual ratio at pH 2 ([1]; 30 min) [%] | Residual ratio at pH 2 ([1]; 2 hours) [%] | Stability in acid (residual ratio at pH = 2: %) [1] [%]
1 | CCCCCOc1ccnc(CSc2nc3ccccc3[nH]2)c1C [Example 1, 2-[(4-n-pentyloxy-3-methylpyridin-2-yl)-methylthio]-1H-benzimidazole] | 57 | 82 | 60 | 100 | 100 | 100 | 100
2 | CCCCCCOc1ccnc(CSc2nc3ccccc3[nH]2)c1C [Example 2, 2-[(4-n-hexyloxy-3-methylpyridin-2-yl)-methylthio]-1H-benzimidazole] | 44 | 65 | 34 | 100 | 100 | 100 | 100
3 | CCCCCCCOc1ccnc(CSc2nc3ccccc3[nH]2)c1C [Example 3, 2-[(4-n-heptyloxy-3-methylpyridin-2-yl)-methylthio]-1H-benzimidazole] | 44 | 70 | 44 | 100 | 100 | 100 | 100
